According to PubChem BioAssay (NCI):
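Grown in 96-well plates, cells were treated for 48 hours with each compound at five concentrations. Insufficient inhibition: endpoint recorded as highest concentration tested. TGI: total growth inhibition.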

Legend:
Experiment in all cases: NCI anticancer screen, dose series, 48 h
DU-145 prostate = tested on: DU-145 prostate
COLO 205 colon = tested on: COLO 205 colon
MOLT-4 leukemia = tested on: MOLT-4 leukemia
HCT-116 colon = tested on: HCT-116 colon
BT-549 breast = tested on: BT-549 breast
NCI-H226 lung = tested on: NCI-H226 lung
TK-10 renal = tested on: TK-10 renal
SK-MEL-28 melanoma = tested on: SK-MEL-28 melanoma
786-0 renal = tested on: 786-0 renal
T-47D breast = tested on: T-47D breast
MDA-N = tested on: MDA-N
SF-268 CNS = tested on: SF-268 CNS
HT29 colon = tested on: HT29 colon
UACC-62 melanoma = tested on: UACC-62 melanoma
M14 melanoma = tested on: M14 melanoma
KM12 colon = tested on: KM12 colon
UO-31 renal = tested on: UO-31 renal
SK-MEL-5 melanoma = tested on: SK-MEL-5 melanoma
OVCAR-8 ovarian = tested on: OVCAR-8 ovarian
PC-3 prostate = tested on: PC-3 prostate
SNB-75 CNS = tested on: SNB-75 CNS
IGROV1 ovarian = tested on: IGROV1 ovarian
HOP-62 NSCLC = tested on: HOP-62 NSCLC
NCI-H23 lung = tested on: NCI-H23 lung
A498 renal = tested on: A498 renal
OVCAR-4 ovarian = tested on: OVCAR-4 ovarian
LOX IMVI melanoma = tested on: LOX IMVI melanoma
OVCAR-3 ovarian = tested on: OVCAR-3 ovarian
SF-539 CNS = tested on: SF-539 CNS
EKVX NSCLC = tested on: EKVX NSCLC
HCT-15 colon = tested on: HCT-15 colon
HS 578T breast = tested on: HS 578T breast
MCF7 breast = tested on: MCF7 breast
RXF 393 renal = tested on: RXF 393 renal
SK-MEL-2 melanoma = tested on: SK-MEL-2 melanoma
OVCAR-5 ovarian = tested on: OVCAR-5 ovarian
HOP-92 NSCLC = tested on: HOP-92 NSCLC
NCI-H522 lung = tested on: NCI-H522 lung
SF-295 CNS = tested on: SF-295 CNS
MDA-MB-435 = tested on: MDA-MB-435
SN12C renal = tested on: SN12C renal
NCI/ADR-RES ovarian = tested on: NCI/ADR-RES ovarian
SK-OV-3 ovarian = tested on: SK-OV-3 ovarian
HL-60(TB) leukemia = tested on: HL-60(TB) leukemia
NCI-H460 lung = tested on: NCI-H460 lung
U251 CNS = tested on: U251 CNS
SW-620 colon = tested on: SW-620 colon
MDA-MB-231 breast = tested on: MDA-MB-231 breast
CCRF-CEM leukemia = tested on: CCRF-CEM leukemia
CAKI-1 renal = tested on: CAKI-1 renal
MALME-3M melanoma = tested on: MALME-3M melanoma
UACC-257 melanoma = tested on: UACC-257 melanoma
A549 NSCLC = tested on: A549 NSCLC
ACHN renal = tested on: ACHN renal
K-562 leukemia = tested on: K-562 leukemia
SR leukemia = tested on: SR leukemia
SNB-19 CNS = tested on: SNB-19 CNS

SMILES: COc1ccc(N2C(=O)C3ON(C(C(N)=O)c4ccccc4)C(c4cc5ccccc5c5ccccc45)C3C2=O)cc1 (configuration not stated)
- TGI (DU-145 prostate): > 50 µM
- TGI (COLO 205 colon): > 50 µM
- TGI (MOLT-4 leukemia): 46.9 µM
- TGI (HCT-116 colon): > 50 µM
- TGI (BT-549 breast): > 50 µM
- TGI (NCI-H226 lung): > 50 µM
- TGI (TK-10 renal): > 50 µM
- TGI (SK-MEL-28 melanoma): > 50 µM
- TGI (786-0 renal): > 50 µM
- TGI (T-47D breast): > 50 µM
- TGI (MDA-N): 35.6 µM
- TGI (SF-268 CNS): > 50 µM
- TGI (HT29 colon): > 50 µM
- TGI (UACC-62 melanoma): > 50 µM
- TGI (M14 melanoma): > 50 µM
- TGI (KM12 colon): > 50 µM
- TGI (UO-31 renal): 34.5 µM
- TGI (SK-MEL-5 melanoma): > 50 µM
- TGI (OVCAR-8 ovarian): > 50 µM
- TGI (PC-3 prostate): > 50 µM
- TGI (SNB-75 CNS): > 50 µM
- TGI (IGROV1 ovarian): > 50 µM
- TGI (HOP-62 NSCLC): > 50 µM
- TGI (NCI-H23 lung): > 50 µM
- TGI (A498 renal): > 50 µM
- TGI (OVCAR-4 ovarian): > 50 µM
- TGI (LOX IMVI melanoma): > 50 µM
- TGI (OVCAR-3 ovarian): > 50 µM
- TGI (SF-539 CNS): > 50 µM
- TGI (EKVX NSCLC): > 50 µM
- TGI (HCT-15 colon): > 50 µM
- TGI (HS 578T breast): > 50 µM
- TGI (MCF7 breast): > 50 µM
- TGI (RXF 393 renal): > 50 µM
- TGI (SK-MEL-2 melanoma): > 50 µM
- TGI (OVCAR-5 ovarian): > 50 µM
- TGI (HOP-92 NSCLC): > 50 µM
- TGI (NCI-H522 lung): > 50 µM
- TGI (SF-295 CNS): > 50 µM
- TGI (MDA-MB-435): > 50 µM
- TGI (SN12C renal): > 50 µM
- TGI (NCI/ADR-RES ovarian): > 50 µM
- TGI (SK-OV-3 ovarian): > 50 µM
- TGI (HL-60(TB) leukemia): > 50 µM
- TGI (NCI-H460 lung): > 50 µM
- TGI (U251 CNS): > 50 µM
- TGI (SW-620 colon): > 50 µM
- TGI (MDA-MB-231 breast): > 50 µM
- TGI (CCRF-CEM leukemia): > 50 µM
- TGI (CAKI-1 renal): 18.5 µM
- TGI (MALME-3M melanoma): > 50 µM
- TGI (UACC-257 melanoma): > 50 µM
- TGI (A549 NSCLC): > 50 µM
- TGI (ACHN renal): > 50 µM
- TGI (K-562 leukemia): > 50 µM
- TGI (SR leukemia): > 50 µM
- TGI (SNB-19 CNS): > 50 µM
